Data set [1] has as its system platelet aggregation / blood pressure. Particulars: cited from earlier work.
The test system of data set [2] is heart rate. As to the kind of experiment: action on heart rate, intravenous injection in anesthetized rats. The settings on record: Rattus norvegicus, i.v., read-out: H-ED10 (dosage causing a 10% increase of the heart rate). Format: in vivo, rats (male wister). As for the experimental part:
(§1) Measurement of the hypotensive activity:
(§2) The actions of the prostacyclin derivatives of the invention on the blood pressure and heart rate of rats were examined by intravenous injection under anesthesia.
(§3) Male wister rats weighing about 250 g were used. Urethane (500 mg/kg) and α-chloralose (100 mg/kg) were intraperitoneally administered to the rats. The rats were anesthetized and fixed in place.
(§4) Each of the test compounds was dissolved in a small amount of ethanol and diluted with 0.05M Tris buffer saline (pH 9) to adjust the final ethanol concentration to not more than 5%. The solution was intravenously injected into the rats through a catheter inserted into the femoral vein.
(§5) The blood pressure of the rats was measured by a pressure transducer through a catheter inserted into the carotid artery of the rats. The heart rate was determined from the blood pressure pulse.
(§6) The action of the test compound on the blood pressure was expressed as the dosage (P-ED20, μg/kg) of the test compound which caused a 20% lowering of the mean blood pressure before administration of the compound. The action of the test compound on the heart rate was expressed as the dosage (H-ED10, μg/kg) of the test compound which caused a 10% increase of the heart rate from the heart rate before administration of the test compound.

Data set [3] has as its system platelet aggregation. Kind of data set: in vitro inhibitory activity of platelet aggregation (ADP-induced, rabbit PRP). It is filed as cell-based, rabbit (Japanese domestic white male). Particulars: Oryctolagus cuniculus, Platelet, rabbit PRP, 10 μM ADP, 37° C., read-out: IC50 (minimum concentration which inhibited more than 50% of platelet aggregation). As for the experimental part: (1) in vitro inhibitory activity of platelet aggregation:
The in vitro platelet aggregation inhibiting activities of the compounds of the invention were examined by using rabbits. Blood was withdrawn from the ear vein of Japanese domestic white male rabbits weighing 2.5 to 3.5 kg. A mixture of a 3.8% trisodium citrate solution and the blood in a ratio of 1:9 was centrifuged at a speed of 1000 rpm for 10 minutes. The upper layer was separated as platelet-rich plasma (PRP). The lower layer was further centrifuged at a speed of 2800 rpm for 10 minutes. The upper layer was separated as platelet-poor plasma (PPP). The number of platelets was adjusted to 6×10^5 /μl to 7×10^5 /μl by diluting the PRP with PPP. 25 microliters of the test compounds prepared as shown below was added in an amount of 25 to 250 microliters of PRP after the adjustment, and the mixture was pre-incubated at 37° C. for 2 minutes, and then 10 μM (final) of ADP was added. By using an aggregometer, changes in transmission were recorded.
The drug was dissolved in ethanol to a concentration of 10 mg/ml. When its activity was measured, it was used after being diluted with phosphate buffer (pH 7.4). Furthermore, after dilution with the buffer, the drug was left to stand at 0° C. for 4 hours, and the activity of the drug was similarly measured.
The rate of inhibition of platelet aggregation was determined from the following equation.
Inhibition rate (%)=(1-T/To)×100
To : the transmittance of the system containing the phosphate buffer,
T: the transmittance of the system to which the test drug was added.
The minimum concentration of the drug which inhibited more than 50% of platelet aggregation was shown as an IC50 value.

Data set [4] concerns blood pressure / platelet aggregation. As to the kind of experiment: ratio of the blood pressure lowering activity and the platelet aggregation inhibiting activity. The settings on record: P-ED20 rats i.v.; IC50 rabbit platelets in vitro. More on the design: species or system rats (blood pressure); rabbits (platelets). The protocol:
(2) From the results obtained in Examples 100 and 101, the ratio of the blood pressure lowering activity and the platelet aggregation inhibiting activity was calculated. The result is shown in Table 3 together with the ratio obtained with PGI2.

For data set [5], the system named is 15-position dehydrogenase. Particulars: cited from earlier work.
For data set [6] the following is noted: cited from earlier work.
In data set [7] the test system is blood pressure. As to the kind of experiment: hypotensive activity, intravenous injection in anesthetized rats. Format: in vivo, rats (male wister). The settings on record: Rattus norvegicus, iv, anesthetized rats; read-out: P-ED20 (dosage causing a 20% lowering of the mean blood pressure). As for the experimental part:
as §1, §2, §3, §4, §5, §6

Converted amounts (≈) assume the structure as drawn. Read-outs that look alike come from different tables or passages of the source.

Regarding `CCCCC[C@H](O)/C=C/[C@@H]1[C@H]2C/C(=C/CCCC(=O)O)O[C@H]2C[C@H]1O` [PGI2, Prostaglandin I2, reference compound], the “doses required for platelet aggregation inhibiting action and antihypertensive action” value in data set [1] is “almost equal to each other”. Also, the ED10 in data set [2] is 0.04 µg/kg. The IC50 was found to be 0.0047 µg/mL (≈ 0.0133 µM) in data set [3] (0 hr) and 0.56 µg/mL (≈ 1.59 µM) in data set [3] (4 hr standing at 0° C. after dilution with phosphate buffer pH 7.4). Further, in data set [4], the “P-ED20 / platelet IC50” value was 4.3. The metabolism in vivo result in data set [5] is listed as “rapidly metabolized by a 15-position dehydrogenase”. Moreover, the “half period of its activity at physiological pH” value in data set [6] is “only about several minutes”. Besides, the ED20 in data set [7] was found to be 0.02 µg/kg.

The values are drawn from patent US4472428A, “Halogenated prostacyclins pharmaceutical use thereof and hydroxy intermediates therefore” (Teijin Limited, priority 1980, dated 1984).
